US5264593A, “Cholesterol lowering compounds” (Merck & Co., Inc., priority 1993, dated 1993)

Target: T1, squalene synthetase (human HepG2 cell enzyme) (Homo sapiens, UniProt P37268)
T1 construct: SOURCE: HEPG2 CELL LINE (Liver, hepatoblastoma, Human) ATCC No. HB 8065; endogenous in cells; host or cells: HepG2 (ATCC HB 8065), sonicated cell extract
T1 sequence (P37268 1-417): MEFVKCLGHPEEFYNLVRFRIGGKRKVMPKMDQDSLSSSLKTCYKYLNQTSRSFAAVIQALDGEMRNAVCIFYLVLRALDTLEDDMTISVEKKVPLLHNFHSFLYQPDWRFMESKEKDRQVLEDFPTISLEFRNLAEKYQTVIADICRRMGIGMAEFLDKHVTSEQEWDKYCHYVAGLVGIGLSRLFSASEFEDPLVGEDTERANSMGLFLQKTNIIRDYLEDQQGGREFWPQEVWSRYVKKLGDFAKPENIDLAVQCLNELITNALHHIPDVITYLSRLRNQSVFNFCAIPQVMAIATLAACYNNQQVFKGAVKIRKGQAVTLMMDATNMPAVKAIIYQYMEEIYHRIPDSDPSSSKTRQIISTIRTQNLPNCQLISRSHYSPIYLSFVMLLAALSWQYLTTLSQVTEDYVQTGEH
Assay: Squalene Synthase Assay (human HepG2 cell enzyme, 3H-farnesyl pyrophosphate substrate)
Format: biochemical
Details: 3 μM 3H-farnesyl pyrophosphate, pH 7.5, 30° C., 20 minutes
Description: The intrinsic squalene synthetase inhibitory activity of the compounds of this invention was measured by the standard in vitro protocol described below:
PREPARATION OF HUMAN HepG2 cell ENZYME
1. SOURCE: HEPG2 CELL LINE (Liver, hepatoblastoma, Human) ATCC No. HB 8065
2. CELL GROWTH AND MAINTENANCE
Culture Medium: Minimum essential medium (MEM) with non-essential amino acids, sodium pyruvate, and 10% fetal bovine serum. The medium was changed twice weekly. […] The growth medium is prepared as listed below.
Subculture Procedure: Remove medium, wash with PBS, add fresh trypsin (0.25%)-EDTA (0.02%) with Hank's Balanced Salt solution and let flask stand for a minute and remove the trypsin solution. Incubate flask at 37° C. until cells detached. Add fresh medium, disperse and dispense cells into new flasks. Subcultivation ratio: 1:6.
PREPARATION of Delipidated Serum: Fetal calf serum (100 ml) and CAB-O-Sil (2 grams) stir overnight at 4° C. and centrifuge at 16,000 rpm for 5 hrs. […]
For each reaction, 55 μl of buffer mixture was taken with 5 μl of an inhibitor solution in DMSO and 10 μl of diluted enzyme (1 to 250 as described in the enzyme preparation, the final protein concentration of enzyme in the assay is 2 μg per ml.). […] 150 μl of heptane layer was then removed into a 96 deep well plate and mixed with 150 μl of scintillation fluid and the radioactivity was determined by liquid scintillation counting. […]

| IC50 | Compound |
| --- | --- |
| 58.2 nM | C=C(CCC12OCC(OC(=O)C(C)(C)C)C(C(=O)O)(O1)C(OC(=O)/C=C/C(C)CC(C)CC)C2O)C(OC(C)=O)C(C)Cc1ccccc1 (stereo not drawn) [Example 2, 4-Trimethylacetate of 3,4-decarboxy-4-epi-Zaragozic Acid A] |
| 2.95 nM | C=C(CCC12OCC(OC(C)=O)C(C(=O)O)(O1)C(OC(=O)/C=C/C(C)CC(C)CC)C2O)C(OC(C)=O)C(C)Cc1ccccc1 (stereo not drawn) [Example 1, 4-Acetate of 3,4-decarboxy-4-epi-Zaragozic Acid A] |
